Literature values in US20030175210A1, “Individualization of therapy with anxiolitics” (McGill University, priority 2001, published 2003).

Conditions: in vivo

Q: With `O=C1Nc2ccc(Cl)cc2C(c2ccccc2Cl)=NC1O` (stereo not shown) [Lorazepam] as the molecule, how does the half-life read?
A: 10 to 15 h
